Key:
human V1A receptor = target: T1, human V1A receptor (Homo sapiens, UniProt P37288); experiment: V1A filter binding assay ([3H]-AVP binding to CHO-hV1A membranes); settings: screen 1.0, [3H]-AVP displacement
T1 construct: host or cells: CHO cells (CHO-hV1A), membrane preparation
Protocol: 1.0 V1A Filter Binding Assay
Receptor binding assays were performed on cellular membranes prepared from CHO cells stably expressing the human V1A receptor, (CHO-hV1A). The CHO-hV1A cell line was kindly provided under a licensing agreement by Marc Thibonnier, Dept. of Medicine, Case Western Reserve University School of Medicine, Cleveland, Ohio. CHO-hV1A cells were routinely maintained at 37° C. in humidified atmosphere with 5% CO2 in DMEM/Hams F12 nutrient mix supplemented with 10% fetal bovine serum, 2 mM L-glutamine, 15 mM HEPES and 400 μg/ml G418. For bulk production of cell pellets, adherent CHO-hV1A cells were grown to confluency of 90–100% in 850 cm^2 roller bottles containing a medium of DMEM/Hams F12 Nutrient Mix supplemented with 10% fetal bovine serum, 2 mM L-glutamine and 15 mM HEPES. Confluent CHO-hV1A cells were washed with phosphate-buffered saline (PBS), harvested into ice cold PBS and centrifuged at 1,000 rpm. Cell pellets were stored at −80° C. until use. Cell pellets were thawed on ice and homogenised in membrane preparation buffer consisting of 50 mM Tris-HCl, pH 7.4, 5 mM MgCl2 and supplemented with a protease inhibitor cocktail, (Roche). The cell homogenate was centrifuged at 1000 rpm, 10 min, 4° C. and the supernatant was removed and stored on ice. The remaining pellet was homogenised and centrifuged as before. The supernatants were pooled and centrifuged at 25,000×g for 30 min at 4° C. The pellet was resuspended in freezing buffer consisting of 50 mM Tris-HCl, pH 7.4, 5 mM MgCl2 and 20% glycerol and stored in small aliquots at −80° C. until use. Protein concentration was determined using Bradford reagent and BSA as a standard.
Protein linearity followed by saturation binding studies were performed on each new batch of membrane. Membrane concentration was chosen that gave specific binding on the linear portion of the curve.
Compounds were tested for their effects on [^3H]-AVP binding to CHO-hV1A membranes, (^3H-AVP; specific activity 65.5 Ci/mmol; NEN Life Sciences). Compounds were solubilised in dimethylsulfoxide (DMSO) and diluted to working concentration of 10% DMSO with assay buffer containing 50 mM Tris-HCL pH 7.4, 5 mM MgCl2 and 0.05% BSA. […] The plates were sealed and counted on a TopCount Microplate Scintillation Counter (Packard Instruments). […] The radioligand binding data was analysed using a four parameter logistic equation with the min forced to 0%. […] Specific binding was calculated by subtracting the mean NSB cpm from the mean Total cpm. […] The inhibitory dissociation constant (Ki) was calculated using the Cheng-Prusoff equation: Ki=IC50/(1+[L]/Kd) where [L] is the concentration of ligand present in the well and Kd is the dissociation constant of the radioligand obtained from Scatchard plot analysis.

T1 sequence (P37288 whole entry): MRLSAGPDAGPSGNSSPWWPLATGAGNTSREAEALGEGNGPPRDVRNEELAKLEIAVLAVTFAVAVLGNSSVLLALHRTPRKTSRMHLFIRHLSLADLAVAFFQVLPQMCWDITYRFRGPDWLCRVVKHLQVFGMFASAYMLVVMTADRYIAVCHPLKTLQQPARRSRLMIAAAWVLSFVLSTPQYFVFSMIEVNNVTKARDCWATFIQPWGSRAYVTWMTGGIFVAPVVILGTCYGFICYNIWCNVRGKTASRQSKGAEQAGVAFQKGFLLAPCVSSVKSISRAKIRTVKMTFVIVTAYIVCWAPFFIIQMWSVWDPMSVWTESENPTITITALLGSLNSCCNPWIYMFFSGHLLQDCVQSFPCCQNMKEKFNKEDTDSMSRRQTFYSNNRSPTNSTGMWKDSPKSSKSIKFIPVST

| Ki (human V1A receptor) | melting point | SMILES |
| --- | --- | --- |
| 12.1 nM |  | c1ccc(Cn2c(CN3CCCCC3)nnc2C2CCN(c3ccccn3)CC2)cc1 [Example 24, 4-(4-Benzyl-5-piperidin-1-ylmethyl-4H-[1,2,4]triazol-3-yl)-3,4,5,6-tetrahydro-2H-[1,2′]bipyridinyl] |
| 16.1 nM |  | C[C@@H](c1ccccc1)n1c(CN2CCCCC2)nnc1C1CCN(c2ccccn2)CC1 [Example 25, (S)-4-[4-(1-Phenyl-ethyl)-5-piperidin-1-ylmethyl-4H-[1,2,4]triazol-3-yl]-3,4,5,6-tetrahydro-2H-[1,2′]bipyridinyl] |

The remaining lines, values behind:

| SMILES | Ki (human V1A receptor) | melting point |
| --- | --- | --- |
| c1ccc(COCc2nnc(C3CCN(c4ccccn4)CC3)n2Cc2ccccc2)cc1 [Example 17, 4-(4-Benzyl-5-benzyloxymethyl-4H-[1,2,4]triazol-3-yl)-3,4,5,6-tetrahydro-2H-[1,2′]bipyridinyl] | 4.67 nM |  |
| Cc1nnc(C2CCN(c3cnccn3)CC2)n1Cc1ccccc1 [Example 23, 2-[4-(4-Benzyl-5-methyl-4H-[1,2,4]triazol-3-yl)-piperidin-1-yl]-pyrazine] |  | 191.1 °C |
| COC1CCN(Cc2nnc(C3CCN(c4ccccn4)CC3)n2Cc2ccccc2)CC1 [Example 26, 4-[4-Benzyl-5-(4-methoxy-piperidin-1-ylmethyl)-4H-[1,2,4]triazol-3-yl]-3,4,5,6-tetrahydro-2H-[1,2′]bipyridinyl] | 4.5 nM |  |

— US7084145B2, “Triazole compounds useful in therapy” (Pfizer Inc., priority 2002, dated 2006)
